Data taken from patent US20090239884A1, “Methods of Treating Inflammation” (priority 2006, published 2009).
Entries after “also recorded” stand apart in the source; their conditions may differ.

Experiments:
[1] = molecular target: PDE8A1 catalytic domain (Homo sapiens, UniProt O60658); details: wild type; cited from earlier work
[2] = tested on: bEnd.3 cells; experiment: intracellular cAMP ELISA in bEnd.3 cells; format: cell-based, mouse; details: DP 100 μM, IBMX 300 μM; for cAMP levels in bEnd.3 cells: 45 minutes
Description: Intracellular cAMP ELISAs. Activated bEnd.3 cells were treated as described above for 20, 45, or 90 minutes. cAMP levels were determined with a Correlate cAMP ELISA kit (Assay Designs, Ann Arbor, Mich.) using an ELISA reader (Bio-Rad, Hercules, Calif.) at 405 nm.
In FIG. 23B, IBMX (300 μM), DP (100 μM), or vehicle (0.1% DMSO) were added to the bEnd.3 cells for the final 20, 45, and 90 minutes of TNF-α exposure and the cellular cAMP content analyzed by ELISA. The values are given as the mean±SEM of an experiment run in duplicate with the results representative of 2 independent experiments (*p<0.05, **p<0.001; one way ANOVA followed by Bonferroni t-test for comparisons between vehicle and DP or IBMX and an unpaired t-test for comparisons between DP and IBMX).

[3] = tested on: Con A-activated splenocytes on TNF-α activated bEnd.3 endothelial cells; experiment: T cell-endothelial cell adhesion assay (Example 13); format: cell-based, mouse
Description: Cell treatment. Confluent bEnd.3 monolayers were incubated with 200 ng/ml TNF-α (Peprotech, Rocky Hill, N.J.) at 37° c. for 2 hours. […] Christoff Zitt and Armin Hatzelmann (Altana Pharma, Konstanz, Germany). Con A-activated splenocytes or CD4^+CD25^− T cells activated with plate-bound anti-CD3 mAb were treated with the same reagents for 20, 45, or 90 minutes.
Adhesion assays. Adhesion assays were performed in 24-well plates with a confluent layer of bEnd.3 cells. Splenocytes or CD4^+CD25^− T cells were labeled with 5 μM Calcein AM (Molecular Probes, Eugene, Oreg.) and treated as described above. 7×10^5 pretreated splenocytes or CD4^+CD25^− T cells per well were incubated on bEnd.3 cells in RPMI media. After 30 minutes at 37° C., non-adherent cells were removed by washing with D-PBS. For analysis, 7×10^5 Calcein AM labeled splenocytes or CD4^+CD25^− T cells were used as positive controls. Fluorescence was read in a Victor 3v microplate reader (Perkin Elmer, Waltham, Mass.) with a fluorescein filter set. The percentage of adherent T cells, i.e. labeled cells resistant to detachment, was calculated as total fluorescence of well divided by fluorescence of 7×10^5 Calcein AM labeled cells multiplied by 100.
In FIGS. 20A-20B, splenocytes from C57BL/6 mice were activated with Con A (3 μg/ml) for 48 hours followed by a 45 minute incubation with (A) IBMX (300 μM), piclamilast (Picl, 1 μM) or DP (100 μM), (B) dibutryl cAMP (Db-cAMP, 500 μM) or DP in the presence or absence of adenosine deaminase (AD, 1 U/ml) or vehicle (0.1% DMSO). bEnd.3 endothelial cells were activated for 2 hours with TNF-α (200 ng/ml) and incubated with the same reagents for the final 45 minutes before splenocytes were added to the bEnd.3 cells for the adhesion assay. The data are presented as the mean±SEM percentage of splenocytes which were resistant to detachment. Results are representative of at least three independent experiments run in triplicate (*p<0.05, **p<0.001; one way ANOVA followed by Bonferroni t-test).

[4] = tested on: CD4+CD25− T cells; experiment: cAMP levels in CD4+CD25− T cells; format: cell-based, mouse; details: 20 minutes of treatment; resolved by 90 minutes
[5] = tested on: CD4+CD25− T cells; experiment: [3H]thymidine proliferation assay of CD4+CD25− T cells; format: cell-based, mouse
Description: Proliferation assays. T cell-depleted splenocytes (Tds) were obtained by negative selection with murine anti-CD4 and anti-CD8 microbeads (Miltenyi Biotec). Isolated CD4^+CD25^− T cells (5×10^4/well) were cultured in 96-well plates (Costar) with irradiated Tds (5×10^4/well) (2600 rad) in the presence or absence of soluble anti-CD3 mAb (0.7 μg/ml) (R&D Systems, Minneapolis, Minn.). DP (100 μM), IBMX (300 μM) or vehicle control (0.1% DMSO in media) were added at 0 hours. After 48 hours, 2 μCi per well of [^3H]thymidine (NEN, Waltham, Mass.) was added and cells were harvested 16 hours later using a semiautomated cell harvester and [^3H]thymidine incorporation determined by scintillation counting. Cell viability in suppression assays was determined using trypan blue (2.5%) at 64 hours of incubation.
In FIG. 22, purified CREM/ICER^+/+ or CREM/ICER^−/− derived CD4^+CD25^−T cells (5×10^4/well) were cocultured with irradiated T cell depleted splenocytes (5×10^4 well) presenting soluble anti-CD3 mAb (0.75 μg/ml) and the cultures were incubated with IBMX (300 μM), DP (100 μM), or vehicle (media) for 64 hours with [3H]thymidine added for the final 16 hours. The extent of proliferation was determined by [3H]thymidine incorporation at 64 hours and the data are presented as the mean cpm+SEM of an experiment run in triplicate. The results are representative of 2 independent experiments. […] (*p<0.05, **p<0.001; comparisons to vehicle were analyzed using a one way ANOVA followed by Bonferroni t-test and using an unpaired t-test for comparisons between DP and IBMX).

[6] = 64 hours, DP 100 μM, IBMX 300 μM

Chain of PDE8A1 catalytic domain (O60658 480-820 limits assumed): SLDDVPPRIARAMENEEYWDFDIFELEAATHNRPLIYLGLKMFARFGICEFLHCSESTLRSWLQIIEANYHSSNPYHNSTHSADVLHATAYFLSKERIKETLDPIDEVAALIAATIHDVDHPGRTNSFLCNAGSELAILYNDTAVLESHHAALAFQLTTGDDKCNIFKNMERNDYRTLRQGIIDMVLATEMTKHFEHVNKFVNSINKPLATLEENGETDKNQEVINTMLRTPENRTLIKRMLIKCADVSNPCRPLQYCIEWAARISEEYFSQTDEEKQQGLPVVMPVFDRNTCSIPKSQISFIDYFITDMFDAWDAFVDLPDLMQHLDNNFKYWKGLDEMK

| Structure (SMILES) | IC50 [1] | cAMP levels in bEnd.3 cells [2] | increase of cAMP levels in bEnd.3 cells ([2]; within 20 minutes) | reduction of adhesion of T cells ([3]; short term, activated endothelial cells (discussion)) | cAMP in CD4+CD25− T cells [4] | T cell proliferation ([3H]thymidine incorporation) [5, 6] | inhibition of proliferation, DP compared with IBMX ([5]; 64 hours, DP 100 μM, IBMX 300 μM, listed as DP) | effect of Crem gene deletion (CREM/ICER−/− T cells) on DP mediated suppression of proliferation ([5]; DP 100 μM) | viability of T cells ([5]; trypan blue at 64 hours, DP treatment) | sensitivity of PDE8A1 catalytic domain to inhibition [1] | ability to reduce adhesion of activated T cells to endothelial cells ([3]; 45 minute incubation, IBMX 300 μM, piclamilast 1 μM, motapizone 1 μM) |
| --- | --- | --- | --- | --- | --- | --- | --- | --- | --- | --- | --- |
| OCCN(CCO)c1nc(N2CCCCC2)c2nc(N(CCO)CCO)nc(N3CCCCC3)c2n1 [Dipyridamole, 2,2′,2″,2′″-(4,8-di(piperidin-1-yl)pyrimido[5,4-d]pyrimidine-2,6-diyl)bis(azanetriyl)tetraethanol] | ~6 µM | significantly increased | over 2 fold | 65% | increase | potently suppressed | more potently than IBMX; also recorded: greater | did not affect | not affected | – | – |
| CC(C)Cn1c(=O)n(C)c(=O)c2[nH]cnc21 [IBMX, 3-isobutyl-1-methylxanthine] | – | significantly increased | – | – | increase | potently suppressed | – | – | – | insensitive | neither |
